How the values were obtained:
[1] = Absorption characteristic of NIR dye in dichloromethane; assay type: physicochemical
Excerpt: The obtained NIR dyes were each dissolved in dichloromethane, and an ultraviolet-visible spectrophotometer (manufactured by Hitachi High Technologies Co., Ltd., U-4100 type) was used to measure each spectral transmittance curve, from which a maximum absorption wavelength λmax, a wavelength λ80 at which the transmittance becomes 80% on a shorter wavelength side than the maximum absorption wavelength with the transmittance at the maximum absorption wavelength set to 10%, a difference between the maximum absorption wavelength λmax and the wavelength λ80 (λmax−λ80), a maximum absorption constant εA in light of a wavelength range of 430 to 550 nm, a maximum absorption constant εB in light of a wavelength range of 670 to 730 nm, and a ratio of these (εB/εA) were calculated. Note that the U-4100 type was used for the measurement of spectral transmittance curves in each of the following examples.

[2] = Solubility of NIR dye to resin solution; assay type: physicochemical; details: stirred two hours; for Solubility evaluation, Polyimide resin: 12.5 mass % C3450 in cyclohexanone:NMP=1:1, 50° C.; for Solubility evaluation, Polyester resin: 12.5 mass % OKP850 in cyclohexanone:NMP=1:1, 50° C.; for Solubility evaluation, Polyethersulfone resin: 12.5 mass % PES4800 in cyclohexanone:NMP=1:1, 50° C.
Method: Results are illustrated in Table 8 together with the kinds of the used dyes. Note that the temperature of the resin solution in the solubility test was set to 50° C., the NIR dye was put into the resin solution, the resultant resin solution was stirred for two hours, and the presence/absence of occurrence of the dissolution was observed visually. Evaluation criteria of the solubility are as follows.
A: Solubility of 9 mass % or more
B: Solubility of 7 mass % or more and less than 9 mass %
C: Solubility of 5 mass % or more and less than 7 mass %
D: Solubility of 3 mass % or more and less than 5 mass %
E: Solubility of 1 mass % or more and less than 3 mass %
F: Solubility of less than 1 mass %

Row | Structure (SMILES) | εA (maximum absorption constant, 430 to 550 nm) [1] | εB (maximum absorption constant, 670 to 730 nm) [1] | εB/εA [1] | λ80 (wavelength of 80% transmittance, shorter side of λmax, transmittance at λmax set to 10%) [1] | λmax (maximum absorption wavelength) [1] | λmax-λ80 [1] | Solubility evaluation, Polyimide resin [2] | Solubility evaluation, Polyester resin [2] | Solubility evaluation, Polyethersulfone resin [2]
1 | CCCOC(=O)Nc1cc2c(cc1C1=C([O-])C(=c3cc4c(cc3NC(=O)OCCC)=[N+](C(C)(CC)CC)C(C)C4(C)C)C1=O)C(C)(C)C(C)N2C(C)(CC)CC (stereo not drawn) [A1-12] | 0.017 | 1 | 59.7 | 656 nm | 707 nm | 51 nm | A (9 mass % or more) | A (9 mass % or more) | A (9 mass % or more)
2 | CCCCCOC(=O)Nc1cc2c(cc1C1=C([O-])C(=c3cc4c(cc3NC(=O)OCCCCC)=[N+](C(C)(CC)CC)C(C)C4(C)C)C1=O)C(C)(C)C(C)N2C(C)(CC)CC (stereo not drawn) [A1-13] | 0.019 | 1 | 51.8 | 659 nm | 707 nm | 48 nm | A (9 mass % or more) | A (9 mass % or more) | A (9 mass % or more)
3 | CCCCCOC(=O)Nc1cc2c(cc1C1=C([O-])C(=c3cc4c(cc3NC(=O)OCCCCC)=[N+](C(C)(C)CC)C(C)C4(C)C)C1=O)C(C)(C)C(C)N2C(C)(C)CC (stereo not drawn) [A1-11] | 0.016 | 1 | 61.3 | 658 nm | 705 nm | 47 nm | A (9 mass % or more) | A (9 mass % or more) | A (9 mass % or more)
4 | CCCCCOC(=O)Nc1cc2c(cc1C1=C([O-])C(=c3cc4c(cc3NC(=O)OCCCCC)=[N+](C)C(C)C4(C)C)C1=O)C(C)(C)C(C)N2C (stereo not drawn) [A1-3] | 0.013 | 1 | 77.5 | 633 nm | 691 nm | 58 nm | A (9 mass % or more) | A (9 mass % or more) | A (9 mass % or more)
5 | COC(=O)Nc1cc2c(cc1C1=C([O-])C(=c3cc4c(cc3NC(=O)OC)=[N+](C)C(C)C4(C)C)C1=O)C(C)(C)C(C)N2C (stereo not drawn) [A1-1] | 0.014 | 1 | 71.1 | 632 nm | 691 nm | 59 nm | E (1 mass % or more and less than 3 mass %) | D (3 mass % or more and less than 5 mass %) | E (1 mass % or more and less than 3 mass %)
6 | CCCc1ccc(OC(=O)Nc2cc3c(cc2C2=C([O-])C(=c4cc5c(cc4NC(=O)Oc4ccc(CCC)cc4)=[N+](C(C)C)C(C)C5(C)C)C2=O)C(C)(C)C(C)N3C(C)C)cc1 (stereo not drawn) [A1-9] | 0.013 | 1 | 75.7 | 651 nm | 700 nm | 49 nm | E (1 mass % or more and less than 3 mass %) | E (1 mass % or more and less than 3 mass %) | E (1 mass % or more and less than 3 mass %)
7 | CCCc1ccc(OC(=O)Nc2cc3c(cc2C2=C([O-])C(=c4cc5c(cc4NC(=O)Oc4ccc(CCC)cc4)=[N+](C)C(C)C5(C)C)C2=O)C(C)(C)C(C)N3C)cc1 (stereo not drawn) [A1-5] | 0.016 | 1 | 63.9 | 636 nm | 693 nm | 57 nm | F (Less than 1 mass %) | F (Less than 1 mass %) | F (Less than 1 mass %)
8 | CCCCC(CC)COC(=O)Nc1cc2c(cc1C1=C([O-])C(=c3cc4c(cc3NC(=O)OCC(CC)CCCC)=[N+](C)C(C)C4(C)C)C1=O)C(C)(C)C(C)N2C (stereo not drawn) [A1-4] | 0.019 | 1 | 53.5 | 632 nm | 690 nm | 58 nm | A (9 mass % or more) | A (9 mass % or more) | A (9 mass % or more)
9 | CCCCCCCOc1ccc(C(=O)Nc2cc3c(cc2C2=C([O-])C(=c4cc5c(cc4NC(=O)c4ccc(OCCCCCCC)cc4)=[N+](C(C)C)C(C)C5(C)C)C2=O)C(C)(C)C(C)N3C(C)C)cc1 (stereo not drawn) [A4, reference compound] | 0.029 | 1 | 34.7 | 659 nm | 710 nm | 51 nm | – | – | –

Second part, the molecule after the results:

Row | εA (maximum absorption constant, 430 to 550 nm) [1] | εB (maximum absorption constant, 670 to 730 nm) [1] | εB/εA [1] | λ80 (wavelength of 80% transmittance, shorter side of λmax, transmittance at λmax set to 10%) [1] | λmax (maximum absorption wavelength) [1] | λmax-λ80 [1] | Solubility evaluation, Polyimide resin [2] | Solubility evaluation, Polyester resin [2] | Solubility evaluation, Polyethersulfone resin [2] | Structure (SMILES)
10 | 0.017 | 1 | 59.0 | 633 nm | 691 nm | 58 nm | A (9 mass % or more) | A (9 mass % or more) | A (9 mass % or more) | CCCOC(=O)Nc1cc2c(cc1C1=C([O-])C(=c3cc4c(cc3NC(=O)OCCC)=[N+](C)C(C)C4(C)C)C1=O)C(C)(C)C(C)N2C (stereo not drawn) [A1-2]
11 | 0.016 | 1 | 61.8 | 647 nm | 697 nm | 50 nm | A (9 mass % or more) | A (9 mass % or more) | A (9 mass % or more) | CCCCCOC(=O)Nc1cc2c(cc1C1=C([O-])C(=c3cc4c(cc3NC(=O)OCCCCC)=[N+](C(C)C)C(C)C4(C)C)C1=O)C(C)(C)C(C)N2C(C)C (stereo not drawn) [A1-7]
12 | 0.018 | 1 | 55.5 | 658 nm | 705 nm | 47 nm | A (9 mass % or more) | A (9 mass % or more) | A (9 mass % or more) | CCCOC(=O)Nc1cc2c(cc1C1=C([O-])C(=c3cc4c(cc3NC(=O)OCCC)=[N+](C(C)(C)CC)C(C)C4(C)C)C1=O)C(C)(C)C(C)N2C(C)(C)CC (stereo not drawn) [A1-10]
13 | 0.017 | 1 | 60.2 | 647 nm | 697 nm | 50 nm | A (9 mass % or more) | A (9 mass % or more) | A (9 mass % or more) | CC(C)OC(=O)Nc1cc2c(cc1C1=C([O-])C(=c3cc4c(cc3NC(=O)OC(C)C)=[N+](C(C)C)C(C)C4(C)C)C1=O)C(C)(C)C(C)N2C(C)C (stereo not drawn) [A1-8]
14 | 0.016 | 1 | 63.9 | 647 nm | 697 nm | 50 nm | A (9 mass % or more) | A (9 mass % or more) | A (9 mass % or more) | CCCOC(=O)Nc1cc2c(cc1C1=C([O-])C(=c3cc4c(cc3NC(=O)OCCC)=[N+](C(C)C)C(C)C4(C)C)C1=O)C(C)(C)C(C)N2C(C)C (stereo not drawn) [A1-6]
15 | 0.020 | 1 | 49.1 | 656 nm | 706 nm | 50 nm | – | – | – | CCCCC(CC)C(=O)Nc1cc2c(cc1C1=C([O-])C(=c3cc4c(cc3NC(=O)C(CC)CCCC)=[N+](C(C)C)C(C)C4(C)C)C1=O)C(C)(C)C(C)N2C(C)C (stereo not drawn) [A3, reference compound]
